Where two headings read alike, the source gives them in different places.
Tests used:
Type in all cases: in vivo
[1] = test system: Erysiphe graminis tritici (Wheat); assay: Foliar fungal disease test on plants: Erysiphe graminis tritici (Wheat); details: plants inoculated 24 hours before treatment
Protocol: (§1) The compounds were tested against a variety of foliar fungal diseases of plants. The technique employed was as follows.
(§2) The plants were grown in John Innes Potting Compost (No 1 or 2) in 4 cm diameter minipots. The test compounds were formulated either by bead milling with aqueous DISPERSOL T or as a solution in acetone or acetone/ethanol which was diluted to the required concentration immediately before use. […] The sprays were applied to maximum retention and the root drenches to a final concentration equivalent to approximately 40 ppm a.i. in dry soil. TWEEN 20 was added to give a final concentration of 0.05% when the sprays were applied to cereals.
(§3) For most of the tests the compounds were applied to the soil (roots) or to the foliage (by spraying) one or two days before the plant was inoculated with the disease. An exception was the test on Erysiphe graminis in which the plants were inoculated 24 hours before treatment. Foliar pathogens were applied by spray as zoosporangial suspensions onto the leaves of test plants. After inoculation, the plants were put into an appropriate environment to allow infection to proceed and then incubated until the disease was ready for assessment. The period between inoculation and assessment varied from four to fourteen days according to the disease and environment.
(§4) The disease level present (i.e. leaf area covered by actively sporulating disease) on each of the treated plants was recorded using the following assessment scale:
(§5) Each assessment was then expressed as a percentage of the level of disease present on the untreated control plants. This calculated value is referred to as a POCO (Percentage of Control) value. An example of a typical calculation is as follows:
(§6) Disease level on untreated control=90
(§7) Disese level on treated plant=30 [formula]
(§8) This calculated POCO value is then rounded to the nearest of the values in the 9-point assessment scale shown above. In this particular example, the POCO value would be rounded to 30. If the calculated POCO falls exactly mid-way between two of the points, it is rounded to the lower of the two values.

Septoria nodorum (Wheat) = assay: Foliar fungal disease test on plants: Septoria nodorum (Wheat); details: one or two days before inoculation
Protocol: as §1, §2, §3, §4, §5, §6, §7, §8

[2] = test system: Puccinia recondita (Wheat); assay: Foliar fungal disease test on plants: Puccinia recondita (Wheat)
Protocol: as §1
The plants were grown in John Innes Potting Compost (No 1 or 2) in 4 cm diameter minipots. The test compounds were formulated either by bead milling with aqueous DISPERSOL T or as a solution in acetone or acetone/ethanol which was diluted to the required concentration immediately before use. The formulations (100 ppm active ingredient) were sprayed on to the foliage or applied to the roots of the plants in the soil. The sprays were applied to maximum retention and the root drenches to a final concentration equivalent to approximately 40 ppm a.i. in dry soil. TWEEN 20 was added to give a final concentration of 0.05% when the sprays were applied to cereals.
[…] An exception was the test on Erysiphe graminis in which the plants were inoculated 24 hours before treatment. Foliar pathogens were applied by spray as zoosporangial suspensions onto the leaves of test plants. After inoculation, the plants were put into an appropriate environment to allow infection to proceed and then incubated until the disease was ready for assessment. The period between inoculation and assessment varied from four to fourteen days according to the disease and environment.
as §4, §5, §6, §7, §8

[3] = test system: Plasmopara viticola (Vines); assay: Foliar fungal disease test on plants: Plasmopara viticola (Vines); details: one or two days before inoculation
Protocol: as §1, §2, §3, §4, §5, §6, §7, §8

[4] = test system: Phytophthora infestans (Tomatoes); details: one or two days before inoculation
[5] = test system: Pyricularia oryzae (Rice); details: one or two days before inoculation
[6] = test system: Thanatephorus cucumeries (Rice); assay: Foliar fungal disease test on plants: Thanatephorus cucumeries (Rice); details: one or two days before inoculation
Protocol: as §1, §2, §3, §4, §5, §6, §7, §8

[7] = test system: Venturia inaequalis (Apples); assay: Foliar fungal disease test on plants: Venturia inaequalis (Apples); details: one or two days before inoculation
Protocol: as §1, §2, §3, §4, §5, §6, §7, §8

[8] = 100 ppm a.i. foliar spray or root drench (approx. 40 ppm in dry soil)
[9] = 100 ppm a.i. foliar spray or root drench (approx. 40 ppm in dry soil), one or two days before inoculation
[10] = 100 ppm a.i. foliar spray or root drench, plants inoculated with Puccinia recondita 48 hours before treatment

Structure (SMILES) | POCO (Percentage of Control) disease level, Erysiphe graminis tritici (Wheat) [1, 8] | POCO (Percentage of Control) disease level, Septoria nodorum (Wheat) (Septoria nodorum (Wheat); [8]) | POCO (Percentage of Control) disease level, Puccinia recondita (Wheat) [2, 9] | POCO (Percentage of Control) disease level, Plasmopara viticola (Vines) [3, 8] | POCO (Percentage of Control) disease level, Phytophthora infestans (Tomatoes) [4, 8] | POCO (Percentage of Control) disease level, Pyricularia oryzae (Rice) [5, 8] | POCO (Percentage of Control) disease level, Thanatephorus cucumeries (Rice) [6, 8] | POCO (Percentage of Control) disease level, Puccinia recondita (Wheat) [2, 10] | POCO (Percentage of Control) disease level, Venturia inaequalis (Apples) [7, 8] | POCO (Percentage of Control) disease level, Erysiphe graminis tritici (Wheat) ([1]; 10 ppm foliar spray only) | POCO (Percentage of Control) disease level, Septoria nodorum (Wheat) (Septoria nodorum (Wheat); 10 ppm foliar spray only) | POCO (Percentage of Control) disease level, Puccinia recondita (Wheat) ([2]; 10 ppm foliar spray only, plants inoculated with Puccinia recondita 48 hours before treatment) | POCO (Percentage of Control) disease level, Plasmopara viticola (Vines) ([3]; 10 ppm foliar spray only) | POCO (Percentage of Control) disease level, Phytophthora infestans (Tomatoes) ([4]; 10 ppm foliar spray only) | POCO (Percentage of Control) disease level, Venturia inaequalis (Apples) ([7]; 10 ppm foliar spray only) | POCO (Percentage of Control) disease level, Thanatephorus cucumeries (Rice) ([6]; 10 ppm foliar spray only) | POCO (Percentage of Control) disease level, Puccinia recondita (Wheat) ([2]; 10 ppm foliar spray only, one or two days before inoculation) | POCO (Percentage of Control) disease level, Pyricularia oryzae (Rice) ([5]; 10 ppm foliar spray only)
COC=C(C(=O)OC)c1ccccc1COC(=O)Nc1cccc(OC)c1 [7 (1)] | 5 (5 = 3.1-5% disease present) | 90 (90 and 94 = 60.1-100% disease present) | 10 (10 = 5.1-10% disease present) | 60 (60 = 30.1-60% disease present) | 90 (90 and 94 = 60.1-100% disease present) | 0 (0 = 0% disease present) | 60 (60 = 30.1-60% disease present) |  |  |  |  |  |  |  |  |  |  | 
CCN(C(=O)OCc1ccccc1C(=COC)C(=O)OC)c1ccc(F)c(Cl)c1 [104 (3)] | 0 (0 = 0% disease present) | 10 (10 = 5.1-10% disease present) |  | 0 (0 = 0% disease present) | 10 (10 = 5.1-10% disease present) |  | 0 (0 = 0% disease present) | 0+ (0 = 0% disease present) | 0 (0 = 0% disease present) |  |  |  |  |  |  |  |  | 
COC=C(C(=O)OC)c1ccccc1COC(=O)N(C)c1cc(F)ccc1F [27 (2)] |  | 0 (0 = 0% disease present) |  | 0 (0 = 0% disease present) | 5 (5 = 3.1-5% disease present) | 0 (0 = 0% disease present) | 0 (0 = 0% disease present) | 0+ (0 = 0% disease present) | 0 (0 = 0% disease present) |  |  |  |  |  |  |  |  | 
CCN(C(=O)OCc1ccccc1C(=COC)C(=O)OC)c1cccc([N+](=O)[O-])c1F [106 (3)] | 30 (30 = 20.1-30% disease present) | 60 (60 = 30.1-60% disease present) |  | 0 (0 = 0% disease present) | 90 (90 and 94 = 60.1-100% disease present) |  | 0 (0 = 0% disease present) | 60+ (60 = 30.1-60% disease present) | 0 (0 = 0% disease present) |  |  |  |  |  |  |  |  | 
COC=C(C(=O)OC)c1ccccc1COC(=O)Nc1cccc(SC)c1 [10 (1)] |  |  |  |  |  |  |  |  |  | 90 (90 and 94 = 60.1-100% disease present) | 90 (90 and 94 = 60.1-100% disease present) | 90+ (90 and 94 = 60.1-100% disease present) | 90 (90 and 94 = 60.1-100% disease present) | 90 (90 and 94 = 60.1-100% disease present) | 0 (0 = 0% disease present) | 90 (90 and 94 = 60.1-100% disease present) |  | 
COC=C(C(=O)OC)c1ccccc1COC(=O)N(C)c1cccc([N+](=O)[O-])c1F [106 (2)] | 0 (0 = 0% disease present) | 30 (30 = 20.1-30% disease present) |  | 0 (0 = 0% disease present) | 60 (60 = 30.1-60% disease present) |  | 0 (0 = 0% disease present) | 30+ (30 = 20.1-30% disease present) | 0 (0 = 0% disease present) |  |  |  |  |  |  |  |  | 
COC=C(C(=O)OC)c1ccccc1COC(=O)N(C)c1ccccc1[N+](=O)[O-] [15 (2)] |  | 5 (5 = 3.1-5% disease present) |  | 0 (0 = 0% disease present) | 60 (60 = 30.1-60% disease present) | 0 (0 = 0% disease present) |  | 0+ (0 = 0% disease present) | 0 (0 = 0% disease present) |  |  |  |  |  |  |  |  | 
COC=C(C(=O)OC)c1ccccc1COC(=O)Nc1ccccc1[N+](=O)[O-] [15 (1)] |  | 0 (0 = 0% disease present) |  | 0 (0 = 0% disease present) | 3 (3 = 1.1-3% disease present) | 5 (5 = 3.1-5% disease present) |  | 90+ (90 and 94 = 60.1-100% disease present) | 0 (0 = 0% disease present) |  |  |  |  |  |  |  |  | 
CO/C=C(/Oc1ccccc1OC(=O)NC(=O)c1ccccc1)C(=O)OC [1 (17), (E)-methyl 2-[2-((benzoyl)carbamoyloxy)phenoxy]-3-methoxypropenoate] | 94 (90 and 94 = 60.1-100% disease present) | 94 (90 and 94 = 60.1-100% disease present) | 24 (20 and 24 = 10.1-20% disease present) | 24 (20 and 24 = 10.1-20% disease present) | 24 (20 and 24 = 10.1-20% disease present) | 94 (90 and 94 = 60.1-100% disease present) |  |  | 0 (0 = 0% disease present) |  |  |  |  |  |  |  |  | 
COC=C(C(=O)OC)c1ccccc1COC(=S)Nc1ccccc1 [5 (6)] |  |  |  |  |  |  |  |  |  |  | 90 (90 and 94 = 60.1-100% disease present) |  | 90 (90 and 94 = 60.1-100% disease present) | 90 (90 and 94 = 60.1-100% disease present) | 0 (0 = 0% disease present) | 0 (0 = 0% disease present) | 90 (90 and 94 = 60.1-100% disease present) | 60 (60 = 30.1-60% disease present)

From patent US6465457B1 (priority 1991, dated 2002)
